{
  "source": "paper PMC8217813",
  "about": "“Bridging Computational Vaccinology and Vaccine Development Through Systematic Identification, Characterization, and Downselection of Conserved and Variable Circumsporozoite Protein CD4 T Cell Epitopes From Diverse Plasmodium falciparum Strains” (Frontiers in Immunology, 2021)",
  "key": {"HLA A*0101": {"target": "T1, HLA A*0101 (Homo sapiens, UniProt P04439, A114D/A174V/A182V/D101N/D185E/E176A/E190D/L180R/Q94H/R68K/S129P/T187R/V100A/V91M/W191G)", "T1 construct": "Pure Protein, LLC (ran the assay)", "assay": "biochemical", "assay_type": "binding"}, "[1]": {"test_system": "CD4 T cells co-cultured with autologous DCs from PBMCs", "assay_type": "cell-based, human"}, "[2]": {"conditions": "allele A0101, cell-free competition with fluorescently labeled control peptide, fluorescence polarization at 72 hours, read-out: IC50"}, "[3]": {"conditions": "allele A0101, cell-free competition with fluorescently labeled control peptide, fluorescence polarization at 72 hours"}, "[4]": {"conditions": "DR1 donors N=5, positive = Stimulation Index ≥1.5-fold above baseline, ICCS, 5 µg/mL peptide"}, "[5]": {"conditions": "DR3 donors N=6, positive = Stimulation Index ≥1.5-fold above baseline, ICCS, 5 µg/mL peptide"}, "[6]": {"conditions": "DR4 donors N=10, positive = Stimulation Index ≥1.5-fold above baseline, ICCS, 5 µg/mL peptide"}, "[7]": {"conditions": "DR7 donors N=4, positive = Stimulation Index ≥1.5-fold above baseline, ICCS, 5 µg/mL peptide"}, "[8]": {"conditions": "DR8 donors N=4, positive = Stimulation Index ≥1.5-fold above baseline, ICCS, 5 µg/mL peptide"}, "[9]": {"conditions": "DR9 donors N=4, positive = Stimulation Index ≥1.5-fold above baseline, ICCS, 5 µg/mL peptide"}, "[10]": {"conditions": "DR11 donors N=4, positive = Stimulation Index ≥1.5-fold above baseline, ICCS, 5 µg/mL peptide"}, "[11]": {"conditions": "DR13 donors N=7, positive = Stimulation Index ≥1.5-fold above baseline, ICCS, 5 µg/mL peptide"}, "[12]": {"conditions": "DR15 donors N=7, positive = Stimulation Index ≥1.5-fold above baseline, ICCS, 5 µg/mL peptide"}},
  "note": "pIC50: −log10 of the molar value. Where two headings read alike, the source gives them in different places. Peptide text beside a SMILES is read from it.",
  "data": [
    {"molecule": "CC(C)C[C@H](NC(=O)[C@H](CCC(N)=O)NC(=O)[C@H](CC(=O)O)NC(=O)[C@H](CCCCN)NC(=O)[C@@H]1CCCN1C(=O)[C@H](CCCCN)NC(=O)[C@H](CC(=O)O)NC(=O)[C@H](C)NC(=O)[C@@H](N)CO)C(=O)N[C@@H](CC(=O)O)C(=O)O", "note": "[Cluster 350_CVX65] (H-SADKPKDQLD-OH)", "values": [
      {"measurement": "pIC50", "setting": "HLA A*0101; [2]", "value": 5.05}
    ]},
    {"molecule": "CC[C@H](C)[C@H](NC(=O)[C@H](Cc1c[nH]cn1)NC(=O)[C@H](CCCCN)NC(=O)[C@H](CC(=O)O)NC(=O)[C@H](CO)NC(=O)[C@@H]1CCCN1)C(=O)N[C@@H](CCCCN)C(=O)N[C@@H](CCC(=O)O)C(=O)N[C@@H](Cc1ccc(O)cc1)C(=O)O", "note": "[CL1-62] (H-PSDKHIKEY-OH)", "values": [
      {"measurement": "pIC50", "setting": "HLA A*0101; [2]", "value": 4.60}
    ]},
    {"molecule": "NVDENANAN [Cluster 292_3D7]", "values": [
      {"measurement": "IC50 (nM)", "setting": "HLA A*0101; [3]", "value": "Non-Binder"}
    ]},
    {"molecule": "CC[C@H](C)[C@H](NC(=O)[C@H](Cc1c[nH]cn1)NC(=O)[C@H](CCCCN)NC(=O)[C@H](CC(=O)O)NC(=O)[C@H](CO)NC(=O)[C@@H]1CCCN1)C(=O)N[C@H](C(=O)N[C@@H](CCC(=O)O)C(=O)N[C@@H](Cc1ccc(O)cc1)C(=O)O)[C@@H](C)O", "note": "[Cluster 311_ICS2] (H-PSDKHITEY-OH)", "values": [
      {"measurement": "pIC50", "setting": "HLA A*0101", "value": 5.57}
    ]},
    {"molecule": "CC[C@H](C)[C@H](NC(=O)[C@H](Cc1c[nH]cn1)NC(=O)[C@H](CCCCN)NC(=O)[C@H](CC(=O)O)NC(=O)[C@H](CO)NC(=O)[C@@H]1CCCN1)C(=O)N[C@@H](CCC(=O)O)C(=O)N[C@@H](CCC(N)=O)C(=O)N[C@@H](Cc1ccc(O)cc1)C(=O)O", "note": "[Cluster 311_ICS7] (H-PSDKHIEQY-OH)", "values": [
      {"measurement": "pIC50", "setting": "HLA A*0101", "value": 5.70}
    ]},
    {"molecule": "NVDPNANPNV [Cluster 109_3D7]", "values": [
      {"measurement": "IC50 (nM)", "setting": "HLA A*0101; [3]", "value": "Non-Binder"}
    ]},
    {"molecule": "DQHIEQYLKTIQNSLSTEWS [ICS4]", "values": [
      {"measurement": "Percentage of donors demonstrating IFN-γ responses, DR1", "setting": "[1]; DR1 donors N=5, positive = Stimulation Index ≥1.5-fold above baseline, ICCS after 14-day co-culture, 5 µg/mL peptide", "value": 0, "unit": "%"},
      {"measurement": "Percentage of donors demonstrating IL-2 responses, DR1", "setting": "[1]; [4]", "value": 20, "unit": "%"},
      {"measurement": "Percentage of donors demonstrating IL-4 responses, DR1", "setting": "[1]; [4]", "value": 0, "unit": "%"},
      {"measurement": "Percentage of donors demonstrating IL-10 responses, DR1", "setting": "[1]; [4]", "value": 0, "unit": "%"},
      {"measurement": "Percentage of donors demonstrating TNF-α responses, DR1", "setting": "[1]; [4]", "value": 0, "unit": "%"},
      {"measurement": "Percentage of donors demonstrating IFN-γ responses, DR3", "setting": "[1]; DR3 donors N=6, positive = Stimulation Index ≥1.5-fold above baseline, ICCS after 14-day co-culture, 5 µg/mL peptide", "value": 0, "unit": "%"},
      {"measurement": "Percentage of donors demonstrating IL-2 responses, DR3", "setting": "[1]; [5]", "value": 0, "unit": "%"},
      {"measurement": "Percentage of donors demonstrating IL-4 responses, DR3", "setting": "[1]; [5]", "value": 17, "unit": "%"},
      {"measurement": "Percentage of donors demonstrating IL-10 responses, DR3", "setting": "[1]; [5]", "value": 0, "unit": "%"},
      {"measurement": "Percentage of donors demonstrating TNF-α responses, DR3", "setting": "[1]; [5]", "value": 0, "unit": "%"},
      {"measurement": "Percentage of donors demonstrating IFN-γ responses, DR4", "setting": "[1]; DR4 donors N=10, positive = Stimulation Index ≥1.5-fold above baseline, ICCS after 14-day co-culture, 5 µg/mL peptide", "value": 30, "unit": "%"},
      {"measurement": "Percentage of donors demonstrating IL-2 responses, DR4", "setting": "[1]; [6]", "value": 20, "unit": "%"},
      {"measurement": "Percentage of donors demonstrating IL-4 responses, DR4", "setting": "[1]; [6]", "value": 0, "unit": "%"},
      {"measurement": "Percentage of donors demonstrating IL-10 responses, DR4", "setting": "[1]; [6]", "value": 10, "unit": "%"},
      {"measurement": "Percentage of donors demonstrating TNF-α responses, DR4", "setting": "[1]; [6]", "value": 30, "unit": "%"},
      {"measurement": "Percentage of donors demonstrating IFN-γ responses, DR7", "setting": "[1]; DR7 donors N=4, positive = Stimulation Index ≥1.5-fold above baseline, ICCS after 14-day co-culture, 5 µg/mL peptide", "value": 0, "unit": "%"},
      {"measurement": "Percentage of donors demonstrating IL-2 responses, DR7", "setting": "[1]; [7]", "value": 0, "unit": "%"},
      {"measurement": "Percentage of donors demonstrating IL-4 responses, DR7", "setting": "[1]; [7]", "value": 0, "unit": "%"},
      {"measurement": "Percentage of donors demonstrating IL-10 responses, DR7", "setting": "[1]; [7]", "value": 0, "unit": "%"},
      {"measurement": "Percentage of donors demonstrating TNF-α responses, DR7", "setting": "[1]; [7]", "value": 0, "unit": "%"},
      {"measurement": "Percentage of donors demonstrating IFN-γ responses, DR8", "setting": "[1]; DR8 donors N=4, positive = Stimulation Index ≥1.5-fold above baseline, ICCS after 14-day co-culture, 5 µg/mL peptide", "value": 0, "unit": "%"},
      {"measurement": "Percentage of donors demonstrating IL-2 responses, DR8", "setting": "[1]; [8]", "value": 0, "unit": "%"},
      {"measurement": "Percentage of donors demonstrating IL-4 responses, DR8", "setting": "[1]; [8]", "value": 0, "unit": "%"},
      {"measurement": "Percentage of donors demonstrating IL-10 responses, DR8", "setting": "[1]; [8]", "value": 0, "unit": "%"},
      {"measurement": "Percentage of donors demonstrating TNF-α responses, DR8", "setting": "[1]; [8]", "value": 0, "unit": "%"},
      {"measurement": "Percentage of donors demonstrating IFN-γ responses, DR9", "setting": "[1]; DR9 donors N=4, positive = Stimulation Index ≥1.5-fold above baseline, ICCS after 14-day co-culture, 5 µg/mL peptide", "value": 0, "unit": "%"},
      {"measurement": "Percentage of donors demonstrating IL-2 responses, DR9", "setting": "[1]; [9]", "value": 0, "unit": "%"},
      {"measurement": "Percentage of donors demonstrating IL-4 responses, DR9", "setting": "[1]; [9]", "value": 0, "unit": "%"},
      {"measurement": "Percentage of donors demonstrating IL-10 responses, DR9", "setting": "[1]; [9]", "value": 0, "unit": "%"},
      {"measurement": "Percentage of donors demonstrating TNF-α responses, DR9", "setting": "[1]; [9]", "value": 0, "unit": "%"},
      {"measurement": "Percentage of donors demonstrating IFN-γ responses, DR11", "setting": "[1]; DR11 donors N=4, positive = Stimulation Index ≥1.5-fold above baseline, ICCS after 14-day co-culture, 5 µg/mL peptide", "value": 0, "unit": "%"},
      {"measurement": "Percentage of donors demonstrating IL-2 responses, DR11", "setting": "[1]; [10]", "value": 25, "unit": "%"},
      {"measurement": "Percentage of donors demonstrating IL-4 responses, DR11", "setting": "[1]; [10]", "value": 0, "unit": "%"},
      {"measurement": "Percentage of donors demonstrating IL-10 responses, DR11", "setting": "[1]; [10]", "value": 0, "unit": "%"},
      {"measurement": "Percentage of donors demonstrating TNF-α responses, DR11", "setting": "[1]; [10]", "value": 0, "unit": "%"},
      {"measurement": "Percentage of donors demonstrating IFN-γ responses, DR13", "setting": "[1]; DR13 donors N=7, positive = Stimulation Index ≥1.5-fold above baseline, ICCS after 14-day co-culture, 5 µg/mL peptide", "value": 0, "unit": "%"},
      {"measurement": "Percentage of donors demonstrating IL-2 responses, DR13", "setting": "[1]; [11]", "value": 0, "unit": "%"},
      {"measurement": "Percentage of donors demonstrating IL-4 responses, DR13", "setting": "[1]; [11]", "value": 14, "unit": "%"},
      {"measurement": "Percentage of donors demonstrating IL-10 responses, DR13", "setting": "[1]; [11]", "value": 0, "unit": "%"},
      {"measurement": "Percentage of donors demonstrating TNF-α responses, DR13", "setting": "[1]; [11]", "value": 0, "unit": "%"},
      {"measurement": "Percentage of donors demonstrating IFN-γ responses, DR15", "setting": "[1]; DR15 donors N=7, positive = Stimulation Index ≥1.5-fold above baseline, ICCS after 14-day co-culture, 5 µg/mL peptide", "value": 29, "unit": "%"},
      {"measurement": "Percentage of donors demonstrating IL-2 responses, DR15", "setting": "[1]; [12]", "value": 14, "unit": "%"},
      {"measurement": "Percentage of donors demonstrating IL-4 responses, DR15", "setting": "[1]; [12]", "value": 0, "unit": "%"},
      {"measurement": "Percentage of donors demonstrating IL-10 responses, DR15", "setting": "[1]; [12]", "value": 0, "unit": "%"},
      {"measurement": "Percentage of donors demonstrating TNF-α responses, DR15", "setting": "[1]; [12]", "value": 29, "unit": "%"},
      {"measurement": "median SI, IFN-γ recall responses", "setting": "[1]; median stimulation index across donors, response with peptide divided by response with no peptide", "value": 0.74}
    ]}
  ]
}
